Key:
[1] = target: Sodium-dependent serotonin transporter (Homo sapiens, UniProt P31645)
D(2) dopamine receptor [2] = target: T1, D(2) dopamine receptor (Homo sapiens, UniProt P14416); test: Displacement of [3H]spiperone form human dopamine D2 receptor by liquid scintillation counting
D(2) dopamine receptor [3] = target: T1, D(2) dopamine receptor; test: Ratio of compound to quinpirole partial agonist activity at human dopamine D2 receptor; assay type: functional
[4] = target: T2, Adrenergic receptor alpha-1 (Homo sapiens, UniProt P35348+P25100+P35368); test: Binding affinity to human alpha1 adrenergic receptor by radioligand displacement assay
T2 sequence (P35348 whole entry): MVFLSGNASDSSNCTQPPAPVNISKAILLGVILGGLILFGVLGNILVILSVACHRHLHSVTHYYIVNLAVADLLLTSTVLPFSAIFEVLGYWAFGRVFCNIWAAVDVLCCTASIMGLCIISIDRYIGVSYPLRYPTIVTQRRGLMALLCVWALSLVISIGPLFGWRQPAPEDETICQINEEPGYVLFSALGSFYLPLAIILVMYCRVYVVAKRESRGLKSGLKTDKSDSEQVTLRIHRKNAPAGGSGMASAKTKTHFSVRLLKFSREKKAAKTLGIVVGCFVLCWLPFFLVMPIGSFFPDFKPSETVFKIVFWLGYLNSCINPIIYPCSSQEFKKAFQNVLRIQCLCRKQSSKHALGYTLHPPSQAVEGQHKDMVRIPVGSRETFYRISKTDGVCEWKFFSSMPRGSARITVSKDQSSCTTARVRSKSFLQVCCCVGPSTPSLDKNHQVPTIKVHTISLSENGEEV
T2 sequence (P25100 whole entry): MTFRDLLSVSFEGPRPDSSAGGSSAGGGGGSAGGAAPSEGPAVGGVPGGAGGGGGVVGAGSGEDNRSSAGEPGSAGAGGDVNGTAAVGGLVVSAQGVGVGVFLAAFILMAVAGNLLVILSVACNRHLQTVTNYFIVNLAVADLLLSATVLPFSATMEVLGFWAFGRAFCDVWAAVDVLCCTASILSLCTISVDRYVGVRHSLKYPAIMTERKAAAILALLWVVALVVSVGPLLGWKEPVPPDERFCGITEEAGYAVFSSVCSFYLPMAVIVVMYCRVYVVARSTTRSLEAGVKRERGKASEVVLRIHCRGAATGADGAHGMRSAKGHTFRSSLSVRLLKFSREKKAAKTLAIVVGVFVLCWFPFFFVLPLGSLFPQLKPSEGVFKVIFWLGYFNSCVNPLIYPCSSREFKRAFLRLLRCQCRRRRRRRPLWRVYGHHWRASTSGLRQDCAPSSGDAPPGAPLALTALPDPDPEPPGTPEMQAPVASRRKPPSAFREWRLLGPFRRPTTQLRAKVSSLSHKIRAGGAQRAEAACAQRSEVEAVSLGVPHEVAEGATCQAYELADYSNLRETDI
T2 sequence (P35368 whole entry): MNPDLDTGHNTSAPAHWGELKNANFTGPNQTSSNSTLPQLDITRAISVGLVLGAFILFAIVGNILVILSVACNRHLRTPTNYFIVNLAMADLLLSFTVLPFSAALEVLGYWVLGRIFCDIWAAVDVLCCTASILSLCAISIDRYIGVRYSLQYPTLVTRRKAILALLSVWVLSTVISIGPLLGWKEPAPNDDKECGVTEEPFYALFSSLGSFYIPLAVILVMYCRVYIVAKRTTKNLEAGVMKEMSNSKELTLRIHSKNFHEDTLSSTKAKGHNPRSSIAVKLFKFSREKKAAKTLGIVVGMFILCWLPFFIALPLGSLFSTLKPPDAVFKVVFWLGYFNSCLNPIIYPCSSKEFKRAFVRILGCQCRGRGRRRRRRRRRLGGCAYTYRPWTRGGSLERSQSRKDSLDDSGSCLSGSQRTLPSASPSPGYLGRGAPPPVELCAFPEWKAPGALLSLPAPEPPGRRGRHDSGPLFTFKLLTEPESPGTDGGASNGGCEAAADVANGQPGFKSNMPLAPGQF

T1 sequence (P14416 whole entry): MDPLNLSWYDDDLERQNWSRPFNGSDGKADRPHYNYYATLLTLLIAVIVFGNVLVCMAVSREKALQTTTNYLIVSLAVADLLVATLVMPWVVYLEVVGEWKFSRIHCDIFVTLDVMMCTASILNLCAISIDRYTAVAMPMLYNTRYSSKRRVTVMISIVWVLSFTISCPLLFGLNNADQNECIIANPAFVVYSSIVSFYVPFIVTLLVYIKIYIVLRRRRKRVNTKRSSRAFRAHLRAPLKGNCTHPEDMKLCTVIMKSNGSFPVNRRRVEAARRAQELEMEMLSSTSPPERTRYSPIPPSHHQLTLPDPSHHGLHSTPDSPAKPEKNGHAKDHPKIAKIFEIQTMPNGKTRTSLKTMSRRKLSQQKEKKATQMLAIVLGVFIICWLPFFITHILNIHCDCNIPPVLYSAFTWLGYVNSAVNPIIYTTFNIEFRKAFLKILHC
Sodium-dependent serotonin transporter, sequence (P31645 whole entry): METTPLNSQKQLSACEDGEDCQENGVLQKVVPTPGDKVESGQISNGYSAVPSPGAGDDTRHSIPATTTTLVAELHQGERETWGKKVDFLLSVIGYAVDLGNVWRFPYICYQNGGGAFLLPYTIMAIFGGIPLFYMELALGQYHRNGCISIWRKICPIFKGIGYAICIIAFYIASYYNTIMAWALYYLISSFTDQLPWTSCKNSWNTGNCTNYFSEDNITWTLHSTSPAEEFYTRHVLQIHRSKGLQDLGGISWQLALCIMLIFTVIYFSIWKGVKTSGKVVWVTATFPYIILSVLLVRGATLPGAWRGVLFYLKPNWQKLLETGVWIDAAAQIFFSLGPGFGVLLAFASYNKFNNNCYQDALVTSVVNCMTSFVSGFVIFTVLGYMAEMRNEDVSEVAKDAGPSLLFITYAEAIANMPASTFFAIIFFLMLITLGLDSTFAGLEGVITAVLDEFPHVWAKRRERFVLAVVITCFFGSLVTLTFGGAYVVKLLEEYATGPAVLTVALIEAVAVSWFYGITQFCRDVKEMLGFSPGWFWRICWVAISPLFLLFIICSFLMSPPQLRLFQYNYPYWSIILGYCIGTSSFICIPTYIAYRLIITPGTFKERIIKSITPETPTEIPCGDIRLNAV

Ki [1] [nM]	Ki (D(2) dopamine receptor [2]) [nM]	Ratio (D(2) dopamine receptor [3])	Ki [4] [nM]	Structure (SMILES)
19	9	< 0.1		CS(=O)(=O)Nc1cccc(OCCN2CCC(Cc3ccc4c(c3)NC(=O)CC4)CC2)c1
22	18	0.21	91	CS(=O)(=O)Nc1cccc(OCCN2CCC(Oc3ccc4c(c3)NC(=O)CC4)CC2)c1
1.5	6.3	0.4	46	O=C1CCc2ccc(CC3C4CCC3CN(C[C@@H]3COc5c(ccc6c5CC(=O)N6)O3)C4)cc2N1 (some centres undefined)
20	19	< 0.1		CS(=O)(=O)Nc1cc(OCCN2CCC(Cc3ccc4c(c3)NC(=O)CC4)CC2)ccc1F
93	8.6			O=C1CCc2ccc(OCCCN3CCN(c4cccc5[nH]c(=O)oc45)CC3)cc2N1
30	9	< 0.1	354	CS(=O)(=O)Nc1cc(OCCN2CCC(Oc3ccc4c(c3)NC(=O)CC4)CC2)ccc1F
5	7	0.85	1100	CS(=O)(=O)Nc1cc(OCCN2CC3CCC(C2)C3Cc2ccc3c(c2)NC(=O)CC3)ccc1F (centres undefined)
1.7	11	0.25	> 3300	CS(=O)(=O)Nc1cccc(OCCN2CC3CCC(C2)C3Cc2ccc3c(c2)NC(=O)CC3)c1 (centres undefined)
94	8.3			O=C1CCc2ccc(OCCCCN3CCN(c4cccc5[nH]c(=O)oc45)CC3)cc2N1
20	2.5	0.41	2	O=C1CCc2ccc(OC3CCN(C[C@@H]4COc5c(ccc6c5CC(=O)N6)O4)CC3)cc2N1
538	8.6			O=C1CCc2ccc(OCCN3CCN(c4cccc5[nH]c(=O)oc45)CC3)cc2N1
1.9	8	0.38	2	O=C1CCc2ccc(CC3CCN(C[C@@H]4COc5c(ccc6c5CC(=O)N6)O4)CC3)cc2N1

Structure (SMILES)	Ki [1] [nM]	Ki (D(2) dopamine receptor [2]) [nM]	Ratio (D(2) dopamine receptor [3])	Ki [4] [nM]
O=C1CCc2ccc(CC3CC4CCC(C3)N4C[C@@H]3COc4c(ccc5c4CC(=O)N5)O3)cc2N1 (some centres undefined)	0.26	16	< 0.1	8
